Assay: Growth inhibition of ATL patient-derived S1T cells after 72 hrs by WST-8 assay
Assay type: functional
Conditions: Homo sapiens

Work on `COc1cc(C2C3=C(Cc4c2cc2c(c4OC)OCO2)C(=O)OC3)cc(OC)c1OC` (configuration not stated) yielded an IC50 of 7 nM.

Work on `COc1cc(C2C3=C(Cc4cc5c(cc42)OCO5)C(=O)OC3)cc(OC)c1OC` (configuration not stated) yielded an IC50 of 5.1 nM.

— ChEMBL document CHEMBL4118035, “Total Synthesis of the Claimed Structure of (±)-Hyptinin and Structural Revision of Natural Hyptinin” (J Nat Prod, 2017)
